Holding throughout (assay type): biochemical
For test [1], the target named is T1, tissue transglutaminase (TG2) (Homo sapiens, UniProt P21980).
T1 construct: purchased Zedira T036 (kit)
T1 sequence (P21980 1-687): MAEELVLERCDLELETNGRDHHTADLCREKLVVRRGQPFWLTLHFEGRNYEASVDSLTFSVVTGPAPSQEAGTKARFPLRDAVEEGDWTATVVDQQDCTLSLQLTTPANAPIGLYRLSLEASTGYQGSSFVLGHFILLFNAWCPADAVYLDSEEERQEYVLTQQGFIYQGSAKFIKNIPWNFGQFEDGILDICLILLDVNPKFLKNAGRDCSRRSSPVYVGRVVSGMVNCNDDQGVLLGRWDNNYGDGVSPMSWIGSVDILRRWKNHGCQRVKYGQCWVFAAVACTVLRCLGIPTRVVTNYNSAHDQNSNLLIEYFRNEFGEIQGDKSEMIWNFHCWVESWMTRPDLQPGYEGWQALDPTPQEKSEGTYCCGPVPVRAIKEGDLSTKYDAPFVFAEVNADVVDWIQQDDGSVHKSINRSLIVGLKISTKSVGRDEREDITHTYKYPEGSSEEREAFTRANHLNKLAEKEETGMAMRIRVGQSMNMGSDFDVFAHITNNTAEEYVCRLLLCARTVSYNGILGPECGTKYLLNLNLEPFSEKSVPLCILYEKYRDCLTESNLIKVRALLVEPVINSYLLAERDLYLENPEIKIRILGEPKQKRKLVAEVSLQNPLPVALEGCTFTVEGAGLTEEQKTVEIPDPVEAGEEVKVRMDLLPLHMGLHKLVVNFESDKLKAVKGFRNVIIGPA
The test is described as follows: Comparative transglutaminase selectivity assay with casein and dansylcadaverine as substrates (kit T036): TG2. To be noted: casein as substrate (apparent IC50). The text has this: (§1) The comparative determination of different transglutaminases to determine the selectivity was made with casein and dansylcadaverine as substrates. Therefore, the kit T036 (Zedira, Darmstadt; Refs: Lorand et al, Anal Biochem, 1971, 44:221-31) as well as transglutaminase products T009 (transglutaminase 1), T012 (transglutaminase 3), T021 (transglutaminase 6) and T027 (plasma transglutaminase, factor XIII) are used. Therefore, two different IC50 values for the compounds are given.
(§2) The evaluation of the resulting enzyme activity is done using the slope of the straight line obtained by the increase in fluorescence.
(§3) To determine the non-inhibited enzyme activity, DMSO instead of inhibitor stock solution is used. IC50 values are determined by plotting the resulting enzyme activity against the logarithm of the inhibitor concentration. IC50 is defined as the concentration of inhibitor resulting in 50% of enzyme activity.
(§4) It should be noted that it was measured here against casein as substrate, which is why other apparent inhibition values (IC50 value) result.

For test [2], the target named is T2, FXIII (plasma transglutaminase, factor XIII) (Homo sapiens, UniProt P00488).
T2 construct: purchased Zedira T027
T2 sequence (P00488 1-732): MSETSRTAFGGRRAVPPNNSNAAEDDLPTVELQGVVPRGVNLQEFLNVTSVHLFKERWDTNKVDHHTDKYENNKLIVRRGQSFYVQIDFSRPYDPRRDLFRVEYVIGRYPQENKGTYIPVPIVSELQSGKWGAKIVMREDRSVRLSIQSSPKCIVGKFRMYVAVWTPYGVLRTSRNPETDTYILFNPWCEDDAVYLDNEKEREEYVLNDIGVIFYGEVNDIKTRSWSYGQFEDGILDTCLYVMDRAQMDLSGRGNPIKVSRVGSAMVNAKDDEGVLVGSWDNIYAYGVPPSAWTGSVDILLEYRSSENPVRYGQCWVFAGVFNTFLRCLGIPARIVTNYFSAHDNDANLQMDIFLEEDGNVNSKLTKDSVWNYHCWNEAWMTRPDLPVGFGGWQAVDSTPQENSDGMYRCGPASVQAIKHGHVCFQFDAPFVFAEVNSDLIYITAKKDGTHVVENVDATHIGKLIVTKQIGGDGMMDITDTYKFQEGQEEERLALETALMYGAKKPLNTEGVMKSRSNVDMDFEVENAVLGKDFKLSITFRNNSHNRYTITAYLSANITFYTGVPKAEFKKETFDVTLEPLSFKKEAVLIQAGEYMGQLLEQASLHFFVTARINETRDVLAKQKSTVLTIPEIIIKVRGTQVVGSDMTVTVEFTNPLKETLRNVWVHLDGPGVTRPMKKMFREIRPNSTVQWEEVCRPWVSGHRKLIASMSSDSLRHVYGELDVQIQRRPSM
The test is described as follows: Comparative transglutaminase selectivity assay with casein and dansylcadaverine as substrates: FXIII. To be noted: casein as substrate.
Description: as §1, §2, §3, §4

Test [3] deals with T3, His tagged recombinant human tissue transglutaminase (His6-rh-TG2) (Homo sapiens, UniProt P21980).
T3 construct: purchased Zedira T002
T3 sequence (P21980 1-687): T1 sequence (P21980 1-687)
Nature of the test: Inactivation of human tissue transglutaminase, fluorescence assay with Abz-APE(CAD-DNP)QEA-OH. To be noted: substrate Abz-APE(CAD-DNP)QEA-OH, 37° C., pH=7.5. In short, it runs like this:
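His6-rh-TG2 (10 μg per assay) was preincubated 5 min at 37 °C with inhibitor in Tris/CaCl2/PEG8000/DTT/glycine methyl ester assay solution (50 μM Abz-APE(CAD-DNP)QEA-OH), pH 7.5, DMSO <0.2%. Fluorescence (ex 313/em 418 nm) read over 15–30 min and activity taken from the slope. IC50 from activity vs log inhibitor concentration.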

Each structure is given as a SMILES string.

For nine compounds, IC50 results are on record in patent US9434763B2, “Derivatives of pyridinone as inhibitors for tissue transglutaminase” (ZEDIRA GMBH, priority 2012, dated 2016).

With `CCOC(=O)/C=C/CC[C@H](NC(C)=O)C(=O)Nc1cccn(CC(=O)NCCC(C)C)c1=O` [A7, (S,E)-Ethyl 6-acetamido-7-(1-(2-(isopentylamino)-2-oxoethyl)-2-oxo-1,2-dihydropyridin-3-ylamino)-7-oxohept-2-enoate], the IC50 in test [1] was 3.6 µM; in test [2] it was 105 µM.
As to `CCOC(=O)/C=C/CC[C@H](NC(=O)c1cncn1C)C(=O)Nc1cccn(CC(=O)NCCC(C)C)c1=O` [A19, (S,E)-Ethyl 7-(1-(2-(isopentylamino)-2-oxoethyl)-2-oxo-1,2-dihydropyridin-3-ylamino)-6-(1-methyl-1H-imidazole-5-carboxamido)-7-oxohept-2-enoate], the IC50 in test [3] came out at 0.08 µM; in test [1], 2.39 µM; in test [2], 81.1 µM.
The corresponding values for `CCOC(=O)/C=C/CC[C@H](NC(=O)CCC(=O)O)C(=O)Nc1cccn(CC(=O)NCCC(C)C)c1=O` [A24, (S,E)-4-(7-Ethoxy-1-(1-(2-(isopentylamino)-2-oxoethyl)-2-oxo-1,2-dihydropyridin-3-ylamino)-1,7-dioxohept-5-en-2-ylamino)-4-oxobutanoic acid] are 0.173 µM, 7.5 µM and 133 µM.
For the compound `COC(=O)/C=C/CC[C@H](NC(C)=O)C(=O)Nc1cccn(CC(=O)NCCC(C)C)c1=O` [A29, (S,E)-methyl 6-acetamido-7-(1-(2-(isopentylamino)-2-oxoethyl)-2-oxo-1,2-dihydropyridin-3-ylamino)-7-oxohept-2-enoate], the IC50 came to 0.4 µM in test [1] and 67.4 µM in test [2].
Turning to `CCOC(=O)/C=C/CC[C@H](NC(=O)CCC(=O)O)C(=O)Nc1cccn(CC(=O)NCC(CC)CC)c1=O` [A30, (S,E)-4-(7-Ethoxy-1-(1-(2-(2-ethylbutylamino)-2-oxoethyl)-2-oxo-1,2-dihydropyridin-3-ylamino)-1,7-dioxohept-5-en-2-ylamino)-4-oxobutanoic acid], the results for the 50% inhibitory concentration (IC50) in test [3], in test [1] and in test [2] were 0.116 µM, 3.26 µM and 90.9 µM, respectively.
On to `CCOC(=O)/C=C/CC[C@H](NC(C)=O)C(=O)Nc1cccn(CC(=O)N[C@H](C(=O)OC)[C@H](C)CC)c1=O` [A35, (S,E)-ethyl 6-acetamido-7-(1-(2-((2S,3R)-1-methoxy-3-methyl-1-oxopentan-2-ylamino)-2-oxoethyl)-2-oxo-1,2-dihydropyridin-3-ylamino)-7-oxohept-2-enoate], for which the IC50 in test [3] was found to be 0.055 µM; in test [1] it was 1 µM; in test [2], 70.7 µM.
The corresponding values for `CCOC(=O)/C=C/CC[C@H](NC(C)=O)C(=O)Nc1cccn(CC(=O)NCCC(CC)CC)c1=O` [A42, (S,E)-ethyl 6-acetamido-7-(1-(2-(3-ethylpentylamino)-2-oxoethyl)-2-oxo-1,2-dihydropyridin-3-ylamino)-7-oxohept-2-enoate] are 0.147 µM, 7.1 µM and 109 µM.
On to `CCOC(=O)/C=C/CC[C@H](NC(=O)c1cncn1C)C(=O)Nc1cccn(CC(=O)NCC(CC)CC)c1=O` [A58, (S,E)-Ethyl 7-(1-(2-(2-ethylbutylamino)-2-oxoethyl)-2-oxo-1,2-dihydropyridin-3-ylamino)-6-(1-methyl-1H-imidazole-5-carboxamido)-7-oxohept-2-enoate], for which the figures for the IC50 in test [1] and in test [2] were 1.54 µM and 120 µM, respectively.
As to `CC[C@@H](C)[C@H](NC(=O)Cn1cccc(NC(=O)[C@H](CC/C=C/C(=O)OC)NC(=O)c2ccccc2)c1=O)C(=O)O` [A61, (2S,3R)-2-(2-(3-((S,E)-2-benzamido-7-methoxy-7-oxohept-5-enamido)-2-oxopyridin-1(2H)-yl)acetamido)-3-methylpentanoic acid], the IC50 in test [1] came out at 0.079 µM; in test [2] it was 63.4 µM.

For orientation: IC50 means the concentration at which inhibition is half-maximal.
